Measurements from patent US20240041911A1, “USE OF CLADRIBINE FOR TREATING IMMUNE BRAIN DISEASE” (CHORD THERAPEUTICS SA, priority 2020, published 2024).

Assays:
[1] = Treatment of a person suffering from autoimmune-mediated limbic encephalitis (single-patient case, anti-NMDAR encephalitis)
[2] = multiple sclerosis patients; cited from earlier work

In the case of `CCCC(CCC)C(=O)[O-].[Na+]` [sodium valproate], the “response of generalized tonic-clonic repetitive seizures to anticonvulsants” value (from here on “response”) ([1]; before cladribine) was “did not respond”.
In the case of `Nc1nc(Cl)nc2c1ncn2[C@H]1C[C@H](O)[C@@H](CO)O1` [cladribine, 2-chloro-2′-deoxyadenosine], the “period of beneficial effects on the disease without need for frequent retreatment” value ([1]; after a relatively short period of treatment) was “over 10 months to two years”, the “disability reported by patient” value ([1]; after recovery following cladribine, able to perform all usual activities) was “no significant disability” and the recurrence of disease ([1]; follow up of 2 years, 5 more maintenance courses (20 mg over 2 consecutive days) with 2 months intervals) was “did not show any recurrence of disease”. For the same molecule, the neurological condition ([1]; over subsequent 4 weeks after the first 3 weeks following cladribine) was “returned to normal neurological condition”, the “onset of effect on severe symptoms” value ([1]; patient with refractory autoimmune encephalitis) was “rapid effect” and the neurological sequel ([1]; remaining after recovery following cladribine) was “parasomnia and complete loss of memory covering the entire hospitalization period”. For the same molecule, the “time at which therapeutic effect on MS is evident” value [2] was “three months after treatment”.
In the case of `O=C1NC(=O)C(c2ccccc2)(c2ccccc2)N1` [phenytoin], the “response” value ([1]; before cladribine) was “did not respond”.
In the case of `O=C1CN=C(c2ccccc2Cl)c2cc([N+](=O)[O-])ccc2N1` [clonazepam], the “response” value ([1]; before cladribine) was “did not respond”.
In the case of `O=C(CCCN1CCC(O)(c2ccc(Cl)cc2)CC1)c1ccc(F)cc1` [haloperidol], the “psychiatric condition under standard antipsychotic treatment” value ([1]; during entire stay in the psychiatric ward, before cladribine) was “without any improvement”.
In the case of `NC(=O)N1c2ccccc2C=Cc2ccccc21` [carbamazepine], the “response” value ([1]; before cladribine) was “did not respond”.
